Legend:
Assay type in all cases: in vivo
[1] = system: Echinochloa oryzacola Vasing.; test: Test Example 2: herbicidal activity, application during weed generation in submerged conditions (symbol A); details: Table 23; application herbicide amount 320 g/ha; grade 0-5 by criteria of Test Example 1
Procedure, shortened: (§1)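 Scoring of herbicidal effect took place 3 weeks after treatment, using the criteria of the earlier test. Treatment was water-surface application of diluted emulsifiable compound at a set dose. Plants were at one- to two-leaf stage in submerged alluvial soil (4 cm depth), greenhouse 25-30° C.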

[2] = system: soybean; test: Test Example 4: effect on crop by soil treatment (symbol d); details: for Effect on crop grade, d: soybean: application herbicide amount 320 g/ha; for d: soybean, effect grade on crop: 320 g/ha
Procedure, shortened: (§2)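 Sterilized diluvial soil, spot sowing, ~1.5 cm soil cover; greenhouse 25–30° C.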

[3] = system: Apera spica-venti; test: Test Example 5: herbicidal effect by foliage application, plastic box (symbol L); details: 320 g/ha, 3 weeks after application
Procedure, shortened: (§3)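 Leaf-applied emulsion, water-diluted to a preset herbicide dose, on two-week-old seedlings raised in a 25° C. to 30° C. greenhouse; injury rated at 3 weeks using earlier criteria.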

[4] = system: Monochoria vaginalis; test: Test Example 2: herbicidal activity, application during weed generation in submerged conditions (symbol C); details: Table 23; application herbicide amount 320 g/ha; grade 0-5 by criteria of Test Example 1
Procedure, shortened: as §1

[5] = system: Digitaria ciliaris; test: Test Example 4: herbicidal effect by soil treatment (symbol F); details: for Herbicidal effect grade, F: Digitaria ciliaris: application herbicide amount 320 g/ha; for F: Digitaria ciliaris, herbicidal effect grade: 320 g/ha
Procedure, shortened: (§4)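 Seeds were sown in sterilized diluvial soil, covered with about 1.5 cm of soil, and the soil surface was sprayed with a water-diluted emulsion of the compound at a predetermined rate. Plants grew in a greenhouse at 25° C. to 30° C.; effects were scored visually 3 weeks after application.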

[6] = system: beet; test: Test Example 4: effect on crop by soil treatment (symbol f); details: for Effect on crop grade, f: beet: application herbicide amount 320 g/ha; for f: beet, effect grade on crop: 320 g/ha
Procedure, shortened: as §2

[7] = system: Chenopodium album; test: Test Example 4: herbicidal effect by soil treatment (symbol O); details: for Herbicidal effect grade, O: Chenopodium album: application herbicide amount 320 g/ha; for O: Chenopodium album, herbicidal effect grade: 320 g/ha
From the text: Herbicidal Effect Test by Soil Treatment
Sterilized diluvial soil was placed in a plastic box having a length of 21 cm, a width of 13 cm, and a depth of 7 cm. Each of the seeds of Digitaria ciliaris, Setaria viridis, Echinochloa crus-galli var. crus-galli, Avena fatua, Alopecurus myosuroides, Lolium multiflorum Lam., Apera spica-venti, Abutilon theophrasti, Amaranthus retroflexus, Chenopodium album, Stellaria media, Galium spurium, Veronica persica, corn, soybean, rice, wheat, beet, and rapeseed was sowed in a spot-like manner and was covered with the soil of a thickness of about 1.5 cm. Subsequently, the emulsion agent of the compound present invention prepared in accordance with Formulation Example 2 was diluted with water so as to be a predetermined herbicide amount and the diluted emulsion agent was uniformly applied to the surface of the soil with a small-size spray. The plastic box was placed in a greenhouse of 25° C. to 30° C. to grow plant. 3 weeks later from the herbicide application, the effect to each plant was investigated in accordance with the criteria of Test Example 1.

[8] = system: Abutilon theophrasti; test: Test Example 5: herbicidal effect by foliage application, plastic box (symbol M); details: 320 g/ha, 3 weeks after application
Procedure, shortened: as §3

[9] = system: Chenopodium album; test: Test Example 5: herbicidal effect by foliage application, plastic box (symbol O); details: 320 g/ha, 3 weeks after application
Procedure, shortened: as §3

[10] = system: Stellaria media; test: Test Example 5: herbicidal effect by foliage application, plastic box (symbol P); details: 320 g/ha, 3 weeks after application
Procedure, shortened: as §3

[11] = system: rice plant; test: Test Example 5: effect on crop by foliage application, plastic box (symbol b); details: 320 g/ha, 3 weeks after application
Procedure, shortened: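 Greenhouse test at 25° C. to 30° C. Seeds of crops and weeds were spot-sown in boxes of sterilized diluvial soil under roughly 1.5 cm soil cover, then grown for foliage treatment.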

[12] = system: Veronica persica; test: Test Example 5: herbicidal effect by foliage application, plastic box (symbol R); details: 320 g/ha, 3 weeks after application
Procedure, shortened: as §3

[13] = system: Lolium multiflorum Lam.; test: Test Example 4: herbicidal effect by soil treatment (symbol K); details: for Herbicidal effect grade, K: Lolium multiflorum Lam.: application herbicide amount 320 g/ha; for K: Lolium multiflorum Lam., herbicidal effect grade: 320 g/ha
Procedure, shortened: as §4

[14] = system: Apera spica-venti; test: Test Example 4: herbicidal effect by soil treatment (symbol L); details: for Herbicidal effect grade, L: Apera spica-venti: application herbicide amount 320 g/ha
Procedure, shortened: as §4

[15] = system: Abutilon theophrasti; test: Test Example 4: herbicidal effect by soil treatment (symbol M); details: for Herbicidal effect grade, M: Abutilon theophrasti: application herbicide amount 320 g/ha; for M: Abutilon theophrasti, herbicidal effect grade: 320 g/ha
Procedure, shortened: as §4

[16] = system: Setaria viridis; test: Test Example 4: herbicidal effect by soil treatment (symbol G); details: for Herbicidal effect grade, G: Setaria viridis: application herbicide amount 320 g/ha; for G: Setaria viridis, herbicidal effect grade: 320 g/ha
Procedure, shortened: as §4

[17] = system: Avena fatua; test: Test Example 5: herbicidal effect by foliage application, plastic box (symbol I); details: 320 g/ha, 3 weeks after application
Procedure, shortened: as §3

[18] = system: Echinochloa crus-galli var. crus-galli; test: Test Example 3: herbicidal effect by foliage application, Wagner pot (symbol H); details: application herbicide amount 320 g/ha; for H (Echinochloa crus-galli var. crus-galli) herbicidal effect grade: Table 24
Procedure, shortened: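 Foliar spray of a water-diluted emulsion at a predetermined herbicide amount, applied to 14-day-old plants. Seedlings were raised in flooded alluvial soil (0.1–0.5 cm water) at 25–30 °C in a greenhouse. Injury was rated after 3 weeks against fixed criteria.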

Row | Structure (SMILES) | Herbicidal effect grade, A: Echinochloa oryzacola Vasing. [1] | Effect on crop grade, d: soybean [2] | L: Apera spica-venti, herbicidal effect grade [3] | Herbicidal effect grade, C: Monochoria vaginalis [4] | Herbicidal effect grade, F: Digitaria ciliaris [5] | Effect on crop grade, f: beet [6] | Herbicidal effect grade, O: Chenopodium album [7] | M: Abutilon theophrasti, herbicidal effect grade [8] | O: Chenopodium album, herbicidal effect grade [9] | P: Stellaria media, herbicidal effect grade [10] | b: directly sowed rice plant, effect on crop grade [11] | R: Veronica persica, herbicidal effect grade [12] | Herbicidal effect grade, K: Lolium multiflorum Lam. [13] | Herbicidal effect grade, L: Apera spica-venti [14] | Herbicidal effect grade, M: Abutilon theophrasti [15] | Herbicidal effect grade, G: Setaria viridis [16] | I: Avena fatua, herbicidal effect grade [17] | H (Echinochloa crus-galli var. crus-galli) herbicidal effect grade [18] | d: soybean, effect grade on crop [2] | L: Apera spica-venti, herbicidal effect (criteria 0-5) [3] | further results
1 | COC(=O)C(C(=O)C1CC1)C1CC(O)=C(c2c(C)cc(Br)cc2C)C1=O (mixture of isomers) [10-002] | 1 (Herbicidal ratio of 5% or higher and lower than 20%) | 0 (Herbicidal ratio of 5% or lower (almost no effect)) | 4 (Herbicidal ratio of 70% or higher and lower than 90%) | 0 (Herbicidal ratio of 5% or lower (almost no effect)) | 4 (Herbicidal ratio of 70% or higher and lower than 90%) | 0 (Herbicidal ratio of 5% or lower (almost no effect)) | 0 (Herbicidal ratio of 5% or lower (almost no effect)) | 0 (Herbicidal ratio of 5% or lower (almost no effect)) | 0 (Herbicidal ratio of 5% or lower (almost no effect)) | 0 (Herbicidal ratio of 5% or lower (almost no effect)) | 4 (Herbicidal ratio of 70% or higher and lower than 90%) | 0 (Herbicidal ratio of 5% or lower (almost no effect)) | 4 (Herbicidal ratio of 70% or higher and lower than 90%) | 3 (Herbicidal ratio of 40% or higher and lower than 70%) | 0 (Herbicidal ratio of 5% or lower (almost no effect)) | 4 (Herbicidal ratio of 70% or higher and lower than 90%) | 5 (Herbicidal ratio of 90% or more (almost completely withered)) | 5 (Herbicidal ratio of 90% or more (almost completely withered)) |  |  | 
2 | CON=C(C)CC1CC(OC(=O)C#C[Si](C)(C)C)=C(c2c(C)cc(C)cc2C)C1=O (stereo not drawn) [1-096] | 5 (Herbicidal ratio of 90% or more (almost completely withered)) |  |  |  |  |  |  |  |  |  |  |  |  |  |  |  |  |  | 1 (Herbicidal ratio of 5% or higher and lower than 20%) | 5 (Herbicidal ratio of 90% or more (almost completely withered)) | F: Digitaria ciliaris, herbicidal effect grade [5]: 5 (Herbicidal ratio of 90% or more (almost completely withered)); f: beet, effect grade on crop [6]: 0 (Herbicidal ratio of 5% or lower (almost no effect)); O: Chenopodium album, herbicidal effect grade [7]: 0 (Herbicidal ratio of 5% or lower (almost no effect)); M: Abutilon theophrasti, herbicidal effect (criteria 0-5) [8]: 4 (Herbicidal ratio of 70% or higher and lower than 90%); O: Chenopodium album, herbicidal effect (criteria 0-5) [9]: 2 (Herbicidal ratio of 20% or higher and lower than 40%); P: Stellaria media, herbicidal effect (criteria 0-5) [10]: 2 (Herbicidal ratio of 20% or higher and lower than 40%); b: directly sowed rice plant, effect on crop (criteria 0-5) [11]: 5 (Herbicidal ratio of 90% or more (almost completely withered)); R: Veronica persica, herbicidal effect (criteria 0-5) [12]: 3 (Herbicidal ratio of 40% or higher and lower than 70%); K: Lolium multiflorum Lam., herbicidal effect grade [13]: 5 (Herbicidal ratio of 90% or more (almost completely withered)); L: Apera spica-venti, herbicidal effect grade ([14]; 320 g/ha): 5 (Herbicidal ratio of 90% or more (almost completely withered)); M: Abutilon theophrasti, herbicidal effect grade [15]: 4 (Herbicidal ratio of 70% or higher and lower than 90%); G: Setaria viridis, herbicidal effect grade [16]: 5 (Herbicidal ratio of 90% or more (almost completely withered)); I: Avena fatua, herbicidal effect (criteria 0-5) [17]: 5 (Herbicidal ratio of 90% or more (almost completely withered)); herbicidal effect on H (Echinochloa crus-galli var. crus-galli), grade 0-5 [18]: 5 (Herbicidal ratio of 90% or more (almost completely withered))
3 | CON=C(CC1CC(O)=C(c2c(C)cc(C)cc2C)C1=O)c1ccc(F)cc1 (stereo not drawn) [1-133] | 1 (Herbicidal ratio of 5% or higher and lower than 20%) |  |  | 0 (Herbicidal ratio of 5% or lower (almost no effect)) |  |  |  |  |  |  |  |  |  |  |  |  |  |  | 4 (Herbicidal ratio of 70% or higher and lower than 90%) | 2 (Herbicidal ratio of 20% or higher and lower than 40%) | F: Digitaria ciliaris, herbicidal effect grade [5]: 4 (Herbicidal ratio of 70% or higher and lower than 90%); f: beet, effect grade on crop [6]: 0 (Herbicidal ratio of 5% or lower (almost no effect)); O: Chenopodium album, herbicidal effect grade [7]: 0 (Herbicidal ratio of 5% or lower (almost no effect)); M: Abutilon theophrasti, herbicidal effect (criteria 0-5) [8]: 0 (Herbicidal ratio of 5% or lower (almost no effect)); O: Chenopodium album, herbicidal effect (criteria 0-5) [9]: 0 (Herbicidal ratio of 5% or lower (almost no effect)); P: Stellaria media, herbicidal effect (criteria 0-5) [10]: 3 (Herbicidal ratio of 40% or higher and lower than 70%); b: directly sowed rice plant, effect on crop (criteria 0-5) [11]: 1 (Herbicidal ratio of 5% or higher and lower than 20%); R: Veronica persica, herbicidal effect (criteria 0-5) [12]: 3 (Herbicidal ratio of 40% or higher and lower than 70%); K: Lolium multiflorum Lam., herbicidal effect grade [13]: 3 (Herbicidal ratio of 40% or higher and lower than 70%); M: Abutilon theophrasti, herbicidal effect grade [15]: 0 (Herbicidal ratio of 5% or lower (almost no effect)); G: Setaria viridis, herbicidal effect grade [16]: 4 (Herbicidal ratio of 70% or higher and lower than 90%); I: Avena fatua, herbicidal effect (criteria 0-5) [17]: 3 (Herbicidal ratio of 40% or higher and lower than 70%); herbicidal effect on H (Echinochloa crus-galli var. crus-galli), grade 0-5 [18]: 3 (Herbicidal ratio of 40% or higher and lower than 70%)
4 | CC#Cc1cc(C)c(C2=C(O)CC(CC(=NOCC(F)(F)F)C(C)C)C2=O)c(C)c1 (stereo not drawn) [9-015] | 5 (Herbicidal ratio of 90% or more (almost completely withered)) | 0 (Herbicidal ratio of 5% or lower (almost no effect)) | 5 (Herbicidal ratio of 90% or more (almost completely withered)) |  | 5 (Herbicidal ratio of 90% or more (almost completely withered)) | 0 (Herbicidal ratio of 5% or lower (almost no effect)) | 0 (Herbicidal ratio of 5% or lower (almost no effect)) | 0 (Herbicidal ratio of 5% or lower (almost no effect)) | 3 (Herbicidal ratio of 40% or higher and lower than 70%) | 3 (Herbicidal ratio of 40% or higher and lower than 70%) | 5 (Herbicidal ratio of 90% or more (almost completely withered)) | 4 (Herbicidal ratio of 70% or higher and lower than 90%) | 5 (Herbicidal ratio of 90% or more (almost completely withered)) | 5 (Herbicidal ratio of 90% or more (almost completely withered)) | 0 (Herbicidal ratio of 5% or lower (almost no effect)) | 5 (Herbicidal ratio of 90% or more (almost completely withered)) | 4 (Herbicidal ratio of 70% or higher and lower than 90%) | 5 (Herbicidal ratio of 90% or more (almost completely withered)) |  |  | 
